These results are taken from ChEMBL document CHEMBL1201862, “PubChem BioAssay data set” (2004).

The structures appear in SMILES notation.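 Cultured in 96-well plates, cells were exposed to test compound for 48 hours across five concentrations. The concentration for 50% growth inhibition is given as GI50.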 Active and inactive are the calls of the source. Cut-off read from the data, not from the text of the source: active = GI50 up to about 1.1 µM and inactive = higher.

What all share (experiment): NCI-60 cell line screen, 48 h
Experiment [1] deals with ACHN.
Experiment [2] concerns CCRF-CEM.
Experiment [3] deals with COLO 205.
In experiment [4] the test system is HT-29.
Experiment [5] relates to IGROV-1.
In experiment [6] the test system is K562.
Experiment [7] concerns M14.
Experiment [8] concerns MCF7.
Experiment [9] relates to MDA-MB-231.
In experiment [10] the test system is MOLT-4.
The test system of experiment [11] is NCI-H226.
For experiment [12], the system named is NCI-H522.
For experiment [13], the system named is OVCAR-3.
Experiment [14] deals with OVCAR-4.
For experiment [15], the system named is SF-295.
In experiment [16] the test system is SK-MEL-2.
The test system of experiment [17] is A498.
In experiment [18] the test system is HCC 2998.
For experiment [19], the system named is HL-60.
For experiment [20], the system named is SR.

For `CN(C)CCCCN1CCc2c(n(C)c3ccccc23)C1=O`, the GI50 was > 77.1 µM (inactive) in experiment [1]; 67.9 µM (inactive) in experiment [2]; 35.3 µM (inactive) in experiment [3]; 24.3 µM (inactive) in [4]; > 72.6 µM (inactive) in [5]; 23.4 µM (inactive) in [6]. The GI50 in [7] is 18.5 µM (inactive); in experiment [8] it was 37.3 µM (inactive); in experiment [9] it was 24.6 µM (inactive); in experiment [10] it was 48.1 µM (inactive); in [11] it was > 61.5 µM (inactive); in experiment [12], 55.3 µM (inactive). Besides, the GI50 in [13] was > 78.9 µM (inactive); in [14], > 86.7 µM (inactive); in experiment [15], 48.4 µM (inactive); in experiment [16] it was 25.9 µM (inactive).

`CC(=O)c1cccc(C)c1C(=O)O`: the GI50 in experiment [17], in [1], in experiment [2], in [3], in experiment [18] and in [19] was > 100 µM (inactive) throughout. Besides, the GI50 in [4], in experiment [5], in experiment [6], in experiment [7], in experiment [10] and in [11] was > 100 µM (inactive) throughout. Moreover, the GI50 in experiment [12], in experiment [13], in [14], in [15], in [16] and in [20] was > 100 µM (inactive) in each case.

For `O=C(/C=C\c1ccccc1-c1ccccc1)c1ccccc1`, the GI50 in experiment [17] is > 100 µM (inactive); in experiment [1], > 100 µM (inactive); in experiment [2], > 100 µM (inactive); in experiment [3], > 100 µM (inactive); in [18] it was > 100 µM (inactive); in [19] it was 60.4 µM (inactive). In addition, the GI50 is > 100 µM (inactive) in experiment [4]; > 100 µM (inactive) in experiment [5]; > 100 µM (inactive) in experiment [6]; > 100 µM (inactive) in [7]; 12.2 µM (inactive) in [9]; 92 µM (inactive) in experiment [10]. In addition, the GI50 in experiment [11] is > 100 µM (inactive); in experiment [12] it was 17.9 µM (inactive); in [13], > 100 µM (inactive); in [14] it was 11.1 µM (inactive); in experiment [15], > 100 µM (inactive); in experiment [20], > 100 µM (inactive).

On to `CC1=C(NC(=O)C(=O)NNC(=O)c2ccncc2)C(=O)c2ccccc2C1=O`, for which the GI50 in experiment [17] is 23.8 µM (inactive); in experiment [1], 16.1 µM (inactive); in experiment [2] it was 20 µM (inactive); in [3], 17.3 µM (inactive); in experiment [18], 16.9 µM (inactive); in experiment [19] it was 10.8 µM (inactive). Moreover, the GI50 was 15.5 µM (inactive) in experiment [4]; 12.7 µM (inactive) in experiment [5]; 24.1 µM (inactive) in [6]; 9.84 µM (inactive) in [7]; 20.8 µM (inactive) in [10]; 14.2 µM (inactive) in [11]. The GI50 in experiment [12] is 12.4 µM (inactive); in experiment [13], 4.08 µM (inactive); in experiment [14] it was 13.8 µM (inactive); in experiment [15] it was 10.8 µM (inactive); in experiment [16], 2.3 µM (inactive); in experiment [20] it was 9.12 µM (inactive).

With `CCCCOC(=O)/C(CC(=O)C=C(C)C)=N\NS(=O)(=O)c1ccc(C)cc1`, the GI50 was > 100 µM (inactive) in [17]; > 100 µM (inactive) in experiment [1]; > 100 µM (inactive) in [2]; 46.1 µM (inactive) in experiment [3]; > 100 µM (inactive) in experiment [18]; > 100 µM (inactive) in experiment [19]. For the same molecule, the GI50 in experiment [4], in [5], in [6], in experiment [7], in experiment [10] and in experiment [11] was > 100 µM (inactive) each time. For the same molecule, the GI50 in experiment [12] was 41.8 µM (inactive); in [13] it was > 100 µM (inactive); in [14], > 100 µM (inactive); in experiment [15] it was > 100 µM (inactive); in [16], > 100 µM (inactive); in experiment [20] it was 27.7 µM (inactive).

For the molecule `O=C(OCc1ccccc1)c1ccccc1-c1c2ccc(=O)cc-2oc2cc(OCc3ccccc3)ccc12`, the GI50 in experiment [17] was 25.5 µM (inactive); in experiment [1] it was 6.93 µM (inactive); in [2] it was 3.61 µM (inactive); in experiment [3], 18.6 µM (inactive); in experiment [18], 19.6 µM (inactive); in experiment [19], 5.48 µM (inactive). Further, the GI50 in experiment [4] was 18.4 µM (inactive); in [5] it was 11 µM (inactive); in [6] it was 3.18 µM (inactive); in experiment [7], 15.8 µM (inactive); in [10], 1.95 µM (inactive); in [11], 11.6 µM (inactive). For the same molecule, the GI50 in experiment [13] was 17.6 µM (inactive); in experiment [14], 13.5 µM (inactive); in [15], 17.2 µM (inactive); in experiment [16], 18.7 µM (inactive); in experiment [20], 4.49 µM (inactive).

`Oc1nnc2c(-c3ccccc3)n[nH]c2n1`: the GI50 in experiment [17], in experiment [1], in experiment [2], in experiment [3], in experiment [18] and in [19] was > 100 µM (inactive) throughout. In addition, the GI50 in [4] is > 100 µM (inactive); in experiment [5] it was 94.4 µM (inactive); in experiment [6], > 100 µM (inactive); in experiment [7], > 100 µM (inactive); in [10], > 100 µM (inactive); in experiment [11] it was > 100 µM (inactive). For the same molecule, the GI50 in [12], in experiment [13], in [14], in experiment [15], in experiment [16] and in experiment [20] was > 100 µM (inactive) in each case.

As to `NCCN1CCCCCc2ccccc21`, the GI50 in experiment [17], in experiment [1], in [2], in [3], in [18] and in [19] was > 10 µM (inactive) in each case. The GI50 in [4], in [5], in [6], in experiment [8], in experiment [10] and in experiment [11] was > 10 µM (inactive) throughout. Moreover, the GI50 in experiment [12], in experiment [13], in experiment [14], in [15], in experiment [16] and in [20] was > 10 µM (inactive) throughout.

Regarding `OC(c1ccccc1Br)(c1ccccc1Br)C(F)(F)F`, the GI50 in [17] is 30.1 µM (inactive); in experiment [1], 20.1 µM (inactive); in [3], 18.2 µM (inactive); in experiment [18], 0.322 µM (active); in experiment [4] it was 14.7 µM (inactive); in experiment [5] it was 40.4 µM (inactive). Besides, the GI50 in experiment [7] was 34.7 µM (inactive); in [10], 14.9 µM (inactive); in experiment [11] it was 10.9 µM (inactive); in [12], 11.6 µM (inactive); in experiment [13], 26.9 µM (inactive); in [14] it was 29.2 µM (inactive). The GI50 in experiment [15] was 21.1 µM (inactive); in experiment [16], 18.5 µM (inactive); in experiment [20], 24.6 µM (inactive).

As to `CC1=C2C(=CC(C)(CO)C2O)C(=O)C(C)(O)C12CC2` (configuration not stated), the GI50 in experiment [17] is 0.00716 µM (active); in experiment [1] it was 0.00152 µM (active); in [2] it was 0.00201 µM (active); in experiment [3], 0.00353 µM (active); in [18], 0.00213 µM (active); in experiment [19] it was 0.00131 µM (active). Also, the GI50 in experiment [4] is 0.00154 µM (active); in experiment [5], 0.00721 µM (active); in experiment [6], 0.00279 µM (active); in experiment [7], 0.00327 µM (active); in experiment [10] it was 0.00156 µM (active); in experiment [11] it was 0.00492 µM (active). Moreover, the GI50 was 0.000776 µM (active) in experiment [12]; 0.00493 µM (active) in experiment [13]; 0.00243 µM (active) in [14]; 0.00115 µM (active) in experiment [15]; 0.00148 µM (active) in experiment [16]; 0.00347 µM (active) in experiment [20].

Consider `O=c1c(O)c(-c2ccc(O)c(O)c2)oc2cc(O)ccc12` [FISETIN], for which the GI50 in experiment [17] was 26.3 µM (inactive); in experiment [1], 18.7 µM (inactive); in experiment [2], 8.99 µM (inactive); in experiment [3], 47.4 µM (inactive); in experiment [18], 18.1 µM (inactive); in experiment [19], 28.7 µM (inactive). For the same molecule, the GI50 in [4] was 25.8 µM (inactive); in [5], 18.6 µM (inactive); in experiment [6], 25 µM (inactive); in experiment [7], 18.2 µM (inactive); in [10] it was 17 µM (inactive); in experiment [11], 9.79 µM (inactive). Further, the GI50 in experiment [12] is 13.6 µM (inactive); in experiment [13], 19.9 µM (inactive); in experiment [14], 31 µM (inactive); in experiment [15], 18.5 µM (inactive); in experiment [16] it was 8.75 µM (inactive); in experiment [20] it was 18 µM (inactive).
